Assay results taken from patent publication US5565441A, “Phosphonoacetic esters and acids as anti-inflammatories” (The Upjohn Company, priority 1995, dated 1996).
Like-named read-outs stand apart in the source and are kept apart here.

Tested on: DTH granuloma (DTH GRA) lesion in mBSA-sensitized mice
Assay: Delayed Type Hypersensitivity Granuloma Assay (DTH GRA) model for inflammation
Assay type: in vivo, mouse
Conditions: for inhibition in vivo at 10 mg/kg: read-out: % Inhibition (DTH granuloma)
Description: The Formula I compounds of this invention have been tested in a Delayed Type Hypersensitivity Granuloma Assay (DTH GRA) model for inflammation. This assay is described by Dunn, C. J. et al., "Development of a delayed-type hypersensitivity granuloma model in the mouse for the study of chronic immune-mediated inflammatory disease," Agents and Actions, 27, 3/4 (1989) and "Murine Delayed-Type Hypersensitivity Granuloma," Int. J. Immunopharmc., 12, 8, 899-904 (1990).
Briefly, mBSA-sensitized mice have a DTH granuloma (DTH GRA) lesion induced by subcutaneously implanting a mBSA-soaked filter which is excised after nine days. Compounds are administered to the mice to determine their effect on the lesions. The results are recorded as percent inhibition. […] Inhibition of 10 to 20% is considered to indicate anti-granuloma activity. Greater than 30% inhibition is good activity.

[1] = Mus musculus, 216 h, 10 MPK, PO, mBSA-sensitized mice, mBSA-soaked filter excised after nine days

Row | Structure (SMILES) | inhibition in vivo at 10 mg/kg [1] [%] | other results
1 | COC(=O)C1(P(=O)(OC)OC)CN1N1C(=O)c2ccccc2C1=O (stereo not drawn) [Compound 11, 2-Aziridinecarboxylic acid, 1-(1,3-dihydro-1,3-dioxo-2H-isoindol-2-yl)-2-(dimethoxyphosphinyl)-, methyl ester] | – | inhibition in vivo at 10 mg/kg (Mus musculus, po, 216 h): 42%
2 | COC(=O)C1(P(=O)(OC)OC)CC1C(=O)c1ccccc1 (stereo not drawn) [Compound 10, Cyclopropanecarboxylic acid, 2-benzoyl-1-(dimethoxyphosphinyl)-, methyl ester] | 47 | –
3 | COC(=O)C(CCc1nc(-c2ccccc2)cc(=O)n1C)P(=O)(O)O (stereo not drawn) [Compound 6b] | 37 | –
4 | CCOC(=O)C(CCC(=O)c1ccccc1)P(=O)(OCC)OCC (stereo not drawn) [Compound 1, Benzenepentanoic acid, α-(diethoxyphosphinyl)-δ-oxo-, ethyl ester] | – | inhibition in vivo at 50 mg/kg (Mus musculus, 216 h, at 50 MPK, PO, mBSA-sensitized mice, mBSA-soaked filter excised after nine days): 37%
5 | CCOC(=O)C(CC(C(=O)c1ccccc1)c1ccccc1)P(=O)(OCC)OCC (stereo not drawn) [Compound 3, Benzenepentanoic acid, α-(diethoxyphosphinyl)-δ-oxo-γ-phenyl-, ethyl ester] | 21 | –
6 | COC(=O)C(CCC(=O)c1cccnc1)P(=O)(OC)OC (stereo not drawn) [Compound 4, 3-Pyridinepentanoic acid, α-(dimethoxyphosphinyl)-δ-oxo-, methyl ester] | 37 | –
7 | CCOC(=O)C1=NNC(C(=O)OC)(P(=O)(OC)OC)C1 (stereo not drawn) [Compound 8, 1H-Pyrazole-5-carboxylic-acid, 3-carboethoxy-5-(dimethoxyphosphinyl)-4,5-dihydro, methyl ester] | – | % Inhibition (DTH granuloma) (10 MPK, PO, mBSA-sensitized mice, mBSA-soaked filter excised after nine days): 59%
8 | COC(=O)C(CCc1cc(C)nc2c(C#N)c(C)nn12)P(=O)(OC)OC (stereo not drawn) [Compound 7, Pyrazolo(1,5-a)pyrimidine-7-butanoic acid, 3-cyano-α-(dimethoxyphosphinyl)-2,5-dimethyl-, methyl ester] | 38 | –
9 | COC(=O)C1(P(=O)(OC)OC)CC(C(=O)c2ccccc2)=NN1 (stereo not drawn) [Compound 9, 1H-Pyrazole-5-carboxylic acid, 3-benzoyl-5-(dimethoxyphosphinyl)-4,5-dihydro-, methyl ester] | 37 | –
10 | COP(=O)(OC)C(CCc1nc(-c2ccccc2)cc(=O)n1C)C(=O)OC(C)(C)C (stereo not drawn) [Compound 15, 2-Pyrimidine butanoic acid, α-(dimethoxyphosphinyl)-1,6-dihydro-1-methyl-6-oxo-4-phenyl, dimethylethyl ester] | 21 | –
11 | COC(=O)C(CCC(=O)c1cccc(F)c1)P(=O)(OC)OC (stereo not drawn) [Compound 2, Benzenepentanoic acid, α-(dimethoxyphosphinyl)-3-fluoro-δ-oxo-,methyl ester] | 26 | –
12 | COC(=O)C(CCc1nc(-c2ccccc2)cc(=O)n1C)P(=O)(OC)OC (stereo not drawn) [Compound 6a, 2-Pyrimidinebutanoic acid, α-(dimethoxyphosphinyl)-1,6-dihydro-1-methyl-6-oxo-4-phenyl-, methyl ester] | 51 | –
